Values quoted from earlier work as cited in US12233147B2, “Method for treating keratin material” (Henkel AG & Co. KGaA, priority 2019, dated 2025).

Settings: 25° C.

Structure (SMILES) | solubility in water
O=S(=O)([O-])c1ccc(N=Nc2c(O)ccc3ccccc23)cc1.[Na+] [Acid Orange 7, sodium salt of 4-[(2-hydroxy-1-naphthyl)azo]benzene sulphonate] | more than 7 g/L
Nc1cc(S(=O)(=O)[O-])cc2cc(S(=O)(=O)[O-])c(N=Nc3ccccc3)c(O)c12.[Na+].[Na+] [Acid Red 33, diantrium salt of 5-amino-4-hydroxy-3-(phenylazo)-naphthalene-2,7-disulphonate] | 2.5 g/L
O=C([O-])c1c(Cl)c(Cl)c(Cl)c(Cl)c1-c1c2c(Br)cc(=O)c(Br)c-2oc2c(Br)c(O)cc(Br)c12.O=C([O-])c1c(Cl)c(Cl)c(Cl)c(Cl)c1-c1c2c(Br)cc(=O)c(Br)c-2oc2c(Br)c(O)cc(Br)c12.[Na+].[Na+] [Acid Red 92, disodium salt of 3,4,5,6-tetrachloro-2-(1,4,5,8-tetrabromo-6-hydroxy-3-oxoxanthen-9-yl)benzoic acid] | greater than 10 g/L
O=C([O-])C1=NN(c2ccc(S(=O)(=O)[O-])cc2)C(=O)C1N=Nc1ccc(S(=O)(=O)[O-])cc1.[Na+].[Na+].[Na+] (stereo not shown) [Acid Yellow 23, trisodium salt of 4,5-dihydro-5-oxo-1-(4-sulfophenyl)-4-((4-sulfophenyl)azo)-1H-pyrazole-3-carboxylic acid] | highly soluble in water
